In patent US8263636B2, “Dual alanyl aminopeptidase and dipeptidyl peptidase iv inhibitors for functionally influencing different cells and for treating immunological inflammatory, neuronal and other diseases” (IMTM GmbH, priority 2003, dated 2012):
Where two headings read alike, the source gives them in different places.

Columns and labels:
[1] = target: alanyl aminopeptidase (APN) (Homo sapiens, UniProt P15144); assay: Inhibition of alanyl aminopeptidase enzymatic activity, fluorogenic substrate (Ala)2-rhodamine; assay type: biochemical
Experimental: (§1) The inhibition characteristics measured are referred to as IC-50 values or ID50 values (the lafter marked with “*”) for both enzymes. The enzymatic activity was determined by means of the fluorogenic substrates/products (Ala-Pro)2-rhodamine and (Ala)2-rhodamine.

[2] = target: dipeptidyl peptidase IV (DPIV) (Homo sapiens, UniProt P27487); assay: Inhibition of dipeptidyl peptidase IV enzymatic activity, fluorogenic substrate (Ala-Pro)2-rhodamine; assay type: biochemical
Experimental: as §1

[3] = test system: dextran sulfate-induced colitis; assay: Dextran sulfate-induced colitis of mice; assay type: in vivo, female Balb/c mice; conditions: 10 μg single inhibitor i.p. on three successive days from day 5; day 7; insignificant; FIG. 2
[4] = test system: ovalbumine-induced asthma bronchiale; assay: Ovalbumine-induced asthma bronchiale of mice; assay type: in vivo, female Balb/c mice; conditions: i.p. 0.1 mg of each inhibitor, days 28-35; ovalbumine challenge day 35; FIG. 3A
Experimental: Female Balb/c mice were sensitized for the antigen ovalbumine capable of inducing asthma bronchiale by an intreperitoneal administration of 10 μg ovalbumine on the days 0, 14 and 21. On day 27/28, the animals received a boostering dose of ovalbumine by inhalation [vD3]. After an intreperitoneal administration of the peptidase inhibitors on the days 28-35, there was effected an intranasal ovalbumine challenge on day 35, as well as a check of the allergic premature reaction via the pulmonal function. There were measured: the average expiratory flux (EF50), the tidal volume, the respiration rate and the minute volume as well as the number of eosinophilic granulocytes in the bronchoalveolar lavage. 8 to 10 animals were used per experimental group. By way of example, in FIG. 3A, there is summarized the effect of the peptidase inhibitors on the reduction of the EF50 value.

[5] = second value of cell DPIV/APN, marked * = ID50 value, read-out: ID50 APN (marked with *)
[6] = first value of cell DPIV/APN, unmarked = IC-50, read-out: IC50 DPIV
[7] = second value of cell DPIV/APN, unmarked = IC-50, read-out: IC50 APN
[8] = Table 8, first value of cell, unmarked = IC-50, read-out: IC50 DPIV

Chain of alanyl aminopeptidase (APN) (P15144 whole entry, species assumed): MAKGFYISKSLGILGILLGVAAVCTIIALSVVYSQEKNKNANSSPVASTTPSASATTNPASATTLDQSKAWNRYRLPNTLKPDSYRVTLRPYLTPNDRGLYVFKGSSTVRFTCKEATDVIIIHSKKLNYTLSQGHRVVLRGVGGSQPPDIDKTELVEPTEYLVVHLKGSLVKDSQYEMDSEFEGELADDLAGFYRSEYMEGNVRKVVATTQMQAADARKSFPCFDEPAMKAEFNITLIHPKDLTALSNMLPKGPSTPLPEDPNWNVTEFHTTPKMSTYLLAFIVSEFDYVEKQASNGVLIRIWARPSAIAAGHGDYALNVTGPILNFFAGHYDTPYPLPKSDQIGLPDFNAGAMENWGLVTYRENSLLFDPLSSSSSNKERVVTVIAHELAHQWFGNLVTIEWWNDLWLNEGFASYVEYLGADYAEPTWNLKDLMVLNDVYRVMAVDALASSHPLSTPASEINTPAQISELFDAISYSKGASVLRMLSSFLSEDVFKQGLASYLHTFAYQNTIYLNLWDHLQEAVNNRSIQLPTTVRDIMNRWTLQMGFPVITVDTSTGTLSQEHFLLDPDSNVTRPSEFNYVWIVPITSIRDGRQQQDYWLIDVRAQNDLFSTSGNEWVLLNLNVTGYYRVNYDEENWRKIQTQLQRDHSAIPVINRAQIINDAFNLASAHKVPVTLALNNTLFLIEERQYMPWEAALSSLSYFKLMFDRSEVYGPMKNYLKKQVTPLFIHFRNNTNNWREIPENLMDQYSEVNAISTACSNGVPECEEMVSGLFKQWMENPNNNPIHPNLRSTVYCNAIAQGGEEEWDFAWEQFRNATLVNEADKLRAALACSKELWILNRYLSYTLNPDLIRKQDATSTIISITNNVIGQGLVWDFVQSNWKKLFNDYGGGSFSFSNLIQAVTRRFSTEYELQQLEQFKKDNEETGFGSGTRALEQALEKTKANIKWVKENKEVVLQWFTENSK
Chain of dipeptidyl peptidase IV (DPIV) (P27487 whole entry, species assumed): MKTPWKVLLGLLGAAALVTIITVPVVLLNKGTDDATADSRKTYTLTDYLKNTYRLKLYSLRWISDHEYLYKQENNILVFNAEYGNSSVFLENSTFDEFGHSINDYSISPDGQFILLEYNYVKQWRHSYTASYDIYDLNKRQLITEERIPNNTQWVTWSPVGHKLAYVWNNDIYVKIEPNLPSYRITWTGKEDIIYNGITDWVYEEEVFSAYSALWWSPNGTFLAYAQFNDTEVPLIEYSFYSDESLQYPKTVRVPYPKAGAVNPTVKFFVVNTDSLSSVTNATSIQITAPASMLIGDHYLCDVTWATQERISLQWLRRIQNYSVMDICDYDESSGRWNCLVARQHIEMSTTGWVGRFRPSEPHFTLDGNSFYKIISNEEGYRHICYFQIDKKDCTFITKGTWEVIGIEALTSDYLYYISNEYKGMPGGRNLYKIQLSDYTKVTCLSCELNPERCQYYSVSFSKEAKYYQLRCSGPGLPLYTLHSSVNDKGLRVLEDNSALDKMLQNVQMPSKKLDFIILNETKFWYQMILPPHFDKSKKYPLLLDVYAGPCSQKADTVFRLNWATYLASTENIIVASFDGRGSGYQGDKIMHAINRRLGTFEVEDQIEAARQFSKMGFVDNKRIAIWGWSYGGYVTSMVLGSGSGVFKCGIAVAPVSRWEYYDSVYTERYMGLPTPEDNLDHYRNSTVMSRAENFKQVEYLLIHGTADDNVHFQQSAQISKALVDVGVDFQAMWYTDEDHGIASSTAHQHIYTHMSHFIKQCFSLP

Row | SMILES | IC50 [2, 6] [µM] | IC50 [1, 7] [µM] | other results
1 | COc1cc(Br)c(OCC(=O)N/N=C/c2cc(Br)c(O)c(O)c2Br)c(Br)c1 [Compound C2.003] | – | – | IC50 [1, 5]: 5.4 µM
2 | COc1ccc(OCC(=O)N/N=C/c2cc(Br)c(O)c(O)c2Br)c(Br)c1 [Compound C2.005] | 40.8 | – | –
3 | Cc1ccc(C)n1-c1cccc(C(=O)N/N=C/c2cc(Br)c(O)c(Br)c2)c1 [Compound C2.007] | – | – | IC50 ([2]; read-out: IC50 DPIV): 41.1 µM
4 | Cc1ccc(/C=N/NC(=O)c2cccc(I)c2)o1 [Compound C2.010] | – | – | IC50 ([2]; read-out: IC50 DPIV): 57.4 µM
5 | COc1ccc(C(=O)N/N=C/c2cc(O)c(O)c(Br)c2Br)cc1 [Compound C2.012] | – | – | IC50 [1, 5]: 33.6 µM
6 | COc1ccc(C(=O)N/N=C\c2cc(Br)c(O)c(O)c2Br)cc1 [Compound C2.013] | – | – | IC50 ([2]; first value of cell DPIV/APN, marked * = ID50 value, read-out: ID50 DPIV (marked with *)): 94 µM
7 | Cc1[nH]c2ccccc2c1C(c1cc(Cl)ccc1O)N1CCOCC1 (centres unmarked) [Compound C4.002] | – | 11.8 | –
8 | O=C(N/N=C/c1cc(Br)cc(Br)c1OC(=O)c1ccccc1)/C(=C/c1ccc2c(c1)OCO2)NC(=O)c1ccccc1 [Compound C4.006] | 38.6 | – | –
9 | CCOC(=O)C1CCN(C(c2ccccn2)c2c(C)[nH]c3ccccc23)CC1 (centres unmarked) [Compound C4.007] | 32 | 32 | –
10 | Cc1[nH]c2ccccc2c1C(c1ccccn1)N1CCN(c2ccccn2)CC1 (centres unmarked) [Compound C4.008] | 45 | 28 | –
11 | Cc1[nH]c2ccccc2c1C(c1ccccn1)N1CCN(c2ccc(F)cc2)CC1 (centres unmarked) [Compound C4.009] | 96 | 76 | –
12 | Cc1[nH]c2ccccc2c1C(c1ccccn1)N1CCC(C(N)=O)CC1 (centres unmarked) [Compound C4.010] | 54 | 42 | –
13 | Cc1[nH]c2ccccc2c1C(c1ccccn1)N1CCCC1 (centres unmarked) [Compound C4.011] | 170 | – | –
14 | Cc1[nH]c2ccccc2c1C(c1ccccn1)N1CCOCC1 (centres unmarked) [Compound C4.012] | 59 | 36 | –
15 | Cc1[nH]c2ccccc2c1C(c1ccccn1)N1CCCCC1 (centres unmarked) [Compound C4.013] | 74 | 78 | –
16 | Cc1[nH]c2ccccc2c1C(c1cccs1)N1CCC(C(N)=O)CC1 (centres unmarked) [Compound C4.014] | 61 | 48 | –
17 | CCOC(=O)N1CCN(C(c2cccs2)c2c(C)[nH]c3ccccc23)CC1 (centres unmarked) [Compound C4.015] | 49 | 25 | –
18 | COc1ccc(C(c2c(C)[nH]c3ccccc23)N2CCCC2)cc1 (centres unmarked) [Compound C4.016] | 49 | 30 | –
19 | Cc1[nH]c2ccccc2c1C(c1cccs1)N1CCCCC1 (centres unmarked) [Compound C4.017] | 67 | 31 | –
20 | Cc1[nH]c2ccccc2c1C(c1cccs1)N1CCOCC1 (centres unmarked) [Compound C4.018] | 61 | 32 | –
21 | Cc1[nH]c2ccccc2c1C(c1cccs1)N1CCCC1 (centres unmarked) [Compound C4.019] | 57 | 35 | –
22 | CCOC(=O)C(NC(=O)c1cccc(Cl)c1)(Nc1ccccc1OC)C(F)(F)F (centres unmarked) [Compound C7.001] | 18.9 | 21.7 | –

Row | SMILES | IC50 [2, 6] [µM] | IC50 [1, 7] [µM] | other results
23 | CCOC(=O)C(NC(=O)c1ccc(OC)cc1)(N1CCCC1=O)C(F)(F)F (centres unmarked) [Compound C7.002] | 25.4 | – | –
24 | CCOC(=O)C(NC(=O)c1ccc(OC)cc1)(N1CCOCC1)C(F)(F)F (centres unmarked) [Compound C7.003] | – | 90.2 | –
25 | CCOC(=O)C(NC(=O)c1ccccc1)(N1CCOCC1)C(F)(F)F (centres unmarked) [Compound C7.004] | – | – | IC50 [1, 5]: 186 µM
26 | CN(C)CCNc1nc2c(c(=O)n(C)c(=O)n2C)n1Cc1ccccc1Cl [Compound C8.002] | – | – | IC50 APN ([1]; Table 8, second value of cell, unmarked = IC-50): 7.5/Inactive
27 | COC(=O)C1=C(N)N2C(=O)CSC2=C(C(=O)OC(C)C)C1 [Compound C8.003] | – | – | IC50 [2, 8]: 10.8 µM
28 | C=CCN1C(=O)C(C#N)=C(C)/C(=C\c2ccc(-c3cc(C)c(C)cc3[N+](=O)[O-])o2)C1=O [Compound C8.012] | – | – | IC50 [2, 8]: 65.4 µM
29 | CCOC(=O)C(NC(=O)c1ccc(OC)cc1)(N1CCOCC1)C(F)(F)F (centres unmarked) [Compound C8.017] | – | – | IC50 ([1]; Table 8, second value of cell, unmarked = IC-50, read-out: IC50 APN): 90.2 µM
30 | O=C(N/C(=C\c1ccco1)C(=O)N1CCCC(CO)C1)c1ccccc1 (centres unmarked) [Compound C8.020] | – | – | IC50 ([2]; Table 8, first value of cell, marked * = ID50 value, read-out: ID50 DPIV (marked with *)): 152 µM
31 | COc1cc(C)[n+](OC(=O)N(C)C)c(C)c1 [Compound C8.021] | – | – | IC50 [2]: 119 µM
32 | O=C(N/C(=C\c1ccco1)C(=O)N1CCCC(CO)C1)c1ccccc1 (centres unmarked) [Compound C9.006] | 152 | – | –
33 | COC(=O)C1=C(N)N2C(=O)CSC2=C(C(=O)OC(C)C)C1 [Compound C10.003] | 10.8 | – | –
34 | COc1ccccc1N1C(=O)c2ccc(Oc3ccc(NC(=O)CCS(=O)(=O)c4ccc(C)cc4)cc3)cc2C1=O [Compound C10.015] | 99.4 | 26.7 | –
35 | COc1ccc(N2C(=O)c3ccc(Oc4ccc(N5C(=O)c6ccc(C(=O)O)cc6C5=O)cc4)cc3C2=O)cc1 [Compound C12.001] | 20.6 | 14.8 | –
36 | COC(=O)C1=C(N)N2C(=O)CSC2=C(C(=O)OC(C)C)C1 [Compound C16.001] | 10.8 | 6.9 | –
37 | CC(C)OC(=O)C1=C(N)N2C(=O)CSC2=C(C(=O)OC(C)C)C1 [Compound C16.007] | 79 | 75 | –
38 | CCOC(=O)C1=c2s/c(=C\c3cccs3)c(=O)n2C(N)=C(S(=O)(=O)c2ccccc2)C1c1cccs1 (centres unmarked) [Compound C16.008] | 139 | – | –
39 | COC(=O)C1=c2s/c(=C\c3cccc(OC)c3)c(=O)n2C(N)=C(S(=O)(=O)c2ccccc2)C1c1cccc(OC)c1 (centres unmarked) [Compound C16.009] | 140 | – | –
40 | COC(=O)C1=c2s/c(=C\c3ccco3)c(=O)n2C(N)=C(S(=O)(=O)c2ccccc2)C1c1ccco1 (centres unmarked) [Compound C16.010] | – | 100 | –
41 | COC(=O)C1=c2s/c(=C\c3ccc(C)cc3)c(=O)n2C(N)=C(S(=O)(=O)c2ccccc2)C1c1ccc(C)cc1 (centres unmarked) [Compound C16.011] | 115 | – | –
42 | N[C@@H](CCCCNC(=O)OCc1ccc([N+](=O)[O-])cc1)C(=O)N1CCCC1 [Lys[Z(NO2)] pyrrolidide] | – | – | reduction of the heaviness of the disease (score) [3]: −12.3%; effect on the reduction of the average expiratory flux (EF50) [4]: showed a therapeutic effect
43 | CCCCC[C@H](CC(=O)NO)C(=O)N[C@H](C(=O)N1CCC[C@H]1CO)C(C)C [actinonine] | – | – | reduction of the heaviness of the disease (score) [3]: −16.5%; effect on the reduction of the average expiratory flux (EF50) [4]: showed a therapeutic effect
